According to ChEMBL document CHEMBL1137466, “5'-Phenyl-3'H-spiro[indoline-3,2'-[1,3,4]thiadiazol]-2-one inhibitors of ADAMTS-5 (aggrecanase-2)” (Bioorg Med Chem Lett, 2007):

How the values were obtained:
[1] = target: T1, A disintegrin and metalloproteinase with thrombospondin motifs 5 (Homo sapiens, UniProt Q9UNA0); experiment: Inhibition of ADAMTS5 by FRET assay
T1 sequence (Q9UNA0 whole entry): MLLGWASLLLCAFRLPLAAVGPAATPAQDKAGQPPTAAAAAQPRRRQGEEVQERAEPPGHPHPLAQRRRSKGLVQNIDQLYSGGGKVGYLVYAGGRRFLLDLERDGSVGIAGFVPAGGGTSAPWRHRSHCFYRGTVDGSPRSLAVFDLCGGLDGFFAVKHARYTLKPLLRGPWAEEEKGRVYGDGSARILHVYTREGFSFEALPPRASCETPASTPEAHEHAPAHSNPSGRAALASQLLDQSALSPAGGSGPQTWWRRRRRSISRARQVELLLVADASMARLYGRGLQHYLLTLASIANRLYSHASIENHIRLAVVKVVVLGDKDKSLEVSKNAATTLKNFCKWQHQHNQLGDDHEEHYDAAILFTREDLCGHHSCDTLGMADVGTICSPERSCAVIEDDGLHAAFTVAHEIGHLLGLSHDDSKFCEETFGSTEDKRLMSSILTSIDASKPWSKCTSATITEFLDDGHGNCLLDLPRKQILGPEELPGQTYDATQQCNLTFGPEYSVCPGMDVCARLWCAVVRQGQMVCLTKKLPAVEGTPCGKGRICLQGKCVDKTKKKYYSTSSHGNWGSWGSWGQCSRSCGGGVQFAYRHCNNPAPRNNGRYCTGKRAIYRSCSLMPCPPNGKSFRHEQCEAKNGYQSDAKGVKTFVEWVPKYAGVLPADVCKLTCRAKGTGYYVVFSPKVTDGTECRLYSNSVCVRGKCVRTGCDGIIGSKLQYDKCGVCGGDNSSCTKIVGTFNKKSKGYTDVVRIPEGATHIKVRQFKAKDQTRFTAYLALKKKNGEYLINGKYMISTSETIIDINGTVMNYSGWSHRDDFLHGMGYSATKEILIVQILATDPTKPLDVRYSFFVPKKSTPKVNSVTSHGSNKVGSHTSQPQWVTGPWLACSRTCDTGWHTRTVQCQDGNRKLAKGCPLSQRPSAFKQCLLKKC

[2] = target: T2, A disintegrin and metalloproteinase with thrombospondin motifs 4 (Homo sapiens, UniProt O75173); experiment: Inhibition of ADAMTS4
T2 sequence (O75173 whole entry): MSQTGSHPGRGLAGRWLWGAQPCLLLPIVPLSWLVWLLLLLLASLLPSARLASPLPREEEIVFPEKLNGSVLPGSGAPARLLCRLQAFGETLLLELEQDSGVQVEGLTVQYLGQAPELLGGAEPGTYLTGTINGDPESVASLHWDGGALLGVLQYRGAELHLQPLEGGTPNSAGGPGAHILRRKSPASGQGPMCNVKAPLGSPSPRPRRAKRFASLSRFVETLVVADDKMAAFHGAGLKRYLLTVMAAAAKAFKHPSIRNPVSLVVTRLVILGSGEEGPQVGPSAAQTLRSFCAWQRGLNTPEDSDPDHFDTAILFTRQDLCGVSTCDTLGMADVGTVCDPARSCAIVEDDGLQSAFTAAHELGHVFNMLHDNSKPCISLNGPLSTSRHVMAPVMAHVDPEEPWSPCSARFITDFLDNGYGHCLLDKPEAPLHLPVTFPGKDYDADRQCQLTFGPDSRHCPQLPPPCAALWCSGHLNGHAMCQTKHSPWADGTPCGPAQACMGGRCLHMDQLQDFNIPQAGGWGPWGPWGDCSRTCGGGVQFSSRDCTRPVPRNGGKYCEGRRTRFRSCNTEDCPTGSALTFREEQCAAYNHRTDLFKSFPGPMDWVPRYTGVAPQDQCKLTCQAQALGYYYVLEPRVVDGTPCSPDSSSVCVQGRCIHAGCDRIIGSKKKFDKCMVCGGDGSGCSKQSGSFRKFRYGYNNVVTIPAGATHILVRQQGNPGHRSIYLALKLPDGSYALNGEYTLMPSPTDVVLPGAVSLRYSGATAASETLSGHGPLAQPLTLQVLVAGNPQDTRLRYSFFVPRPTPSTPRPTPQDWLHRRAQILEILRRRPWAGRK

[3] = target: Collagenase 3 (Homo sapiens, UniProt P45452); experiment: Inhibition of MMP13
[4] = target: Macrophage metalloelastase (Homo sapiens, UniProt P39900); experiment: Inhibition of MMP12
Chain of Macrophage metalloelastase (P39900 whole entry): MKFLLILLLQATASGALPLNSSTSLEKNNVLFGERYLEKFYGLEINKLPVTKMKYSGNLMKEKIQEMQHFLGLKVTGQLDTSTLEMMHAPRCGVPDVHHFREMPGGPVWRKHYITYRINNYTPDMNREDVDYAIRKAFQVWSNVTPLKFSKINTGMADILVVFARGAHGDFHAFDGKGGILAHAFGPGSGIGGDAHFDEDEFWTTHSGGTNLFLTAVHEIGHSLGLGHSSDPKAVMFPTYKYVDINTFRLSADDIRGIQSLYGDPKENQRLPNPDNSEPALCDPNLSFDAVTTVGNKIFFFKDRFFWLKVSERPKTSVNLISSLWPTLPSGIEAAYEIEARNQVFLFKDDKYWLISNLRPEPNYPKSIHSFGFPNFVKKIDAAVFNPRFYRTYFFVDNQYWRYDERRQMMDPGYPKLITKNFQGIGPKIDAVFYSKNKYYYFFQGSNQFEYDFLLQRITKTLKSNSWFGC

SMILES	IC50 [1]	IC50 [2]	IC50 [3]	IC50 [4]
Cc1ccc(C2=NNC3(S2)C(=O)Nc2ccccc23)cc1 (stereo unspecified)	3.7 µM	–	–	–
CCc1ccc2c(c1)C1(NN=C(c3ccc(C)cc3)S1)C(=O)N2 (stereo unspecified)	1.9 µM	–	–	–
CCc1ccc2c(c1)C1(NN=C(c3ccc(OC)cc3)S1)C(=O)N2 (stereo unspecified)	1.4 µM	–	–	–
COc1ccc(C2=NNC3(S2)C(=O)Nc2ccc(Cl)cc23)cc1 (stereo unspecified)	2 µM	–	–	–
CCCc1ccc2c(c1)NC(=O)C21NN=C(c2ccc(OC)cc2)S1 (stereo unspecified)	–	> 22 µM	> 22 µM	1.7 µM
COc1ccc(C2=NNC3(S2)C(=O)Nc2cc(Cl)ccc23)cc1 (stereo unspecified)	1.2 µM	–	–	–
Cc1ccc(C2=NNC3(S2)C(=O)N(c2ccccc2C)c2ccc(C)cc23)cc1 (stereo unspecified)	1.2 µM	–	–	–
COc1ccc(C2=NNC3(S2)C(=O)N(C)c2ccccc23)cc1 (stereo unspecified)	7.5 µM	–	–	–
COc1ccc(C2=NNC3(S2)C(=O)N(Cc2ccccc2)c2ccccc23)cc1 (stereo unspecified)	0.87 µM	> 22 µM	> 100 µM	5.6 µM
COc1ccc(C2=NNC3(S2)C(=O)N(c2ccccc2C)c2ccc(C)cc23)cc1 (stereo unspecified)	–	10.5 µM	> 100 µM	> 22 µM
CCCc1cc2c(cc1C)C1(NN=C(c3ccc(OC)cc3)S1)C(=O)N2Cc1ccccc1 (stereo unspecified)	0.95 µM	–	–	–
CCc1ccc2c(c1)C1(NN=C(c3ccccc3)S1)C(=O)N2 (stereo unspecified)	9.6 µM	–	–	–
Cc1ccc(C2=NNC3(S2)C(=O)Nc2ccc(C)cc23)cc1 (stereo unspecified)	3 µM	–	–	–
COc1ccc(C2=NNC3(S2)C(=O)Nc2ccc(C)cc23)cc1 (stereo unspecified)	2.5 µM	–	–	–
CC(C)N1C(=O)C2(NN=C(c3ccccc3)S2)c2ccccc21 (stereo unspecified)	3.1 µM	–	–	–
COc1ccc(C2=NNC3(S2)C(=O)N(Cc2ccccc2)c2ccc(C)cc23)cc1 (stereo unspecified)	–	–	> 100 µM	> 22 µM
O=C1Nc2ccccc2C12NN=C(c1ccccc1)S2 (stereo unspecified)	24.2 µM	–	–	–
Cc1ccc(C2=NNC3(S2)C(=O)N(C)c2ccccc23)cc1 (stereo unspecified)	4.6 µM	–	–	–
